Values after ≈ are worked out from the molar mass of the structure shown. “Also recorded” adds a separate entry of the source. Read-outs that look alike come from different tables or passages of the source.
Key:
SaOatA [1] = target: T1, SaOatA (Staphylococcus aureus, UniProt Q2FV54); experiment: biochemical; settings: for activity at 10 µM: pH 7, read-out: SaOatA 4MU-Ac 1° Screen (% RA)
T1 sequence (Q2FV54 435-603): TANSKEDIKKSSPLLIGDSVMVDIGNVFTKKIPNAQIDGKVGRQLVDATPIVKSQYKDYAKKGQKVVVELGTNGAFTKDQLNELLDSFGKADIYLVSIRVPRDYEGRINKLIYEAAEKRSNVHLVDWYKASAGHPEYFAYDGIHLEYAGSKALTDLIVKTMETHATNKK

NgPatB [2] = target: T2, NgPatB (Neisseria gonorrhoeae, UniProt Q5F966); experiment: NgPatB esterase inhibition, chromogenic assay with pNP-Ac as substrate; type: biochemical
T2 sequence (Q5F966 entry or part of it): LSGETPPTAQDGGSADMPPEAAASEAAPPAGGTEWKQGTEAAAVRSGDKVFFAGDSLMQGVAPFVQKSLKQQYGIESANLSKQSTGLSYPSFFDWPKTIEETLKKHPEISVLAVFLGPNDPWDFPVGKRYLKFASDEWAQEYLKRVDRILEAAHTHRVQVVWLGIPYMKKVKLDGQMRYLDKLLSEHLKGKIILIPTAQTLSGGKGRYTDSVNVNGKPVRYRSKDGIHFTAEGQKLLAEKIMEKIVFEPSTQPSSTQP
Experimental: (§1) With fluorometric assays, fluorescence quenching by compounds in the libraries could lead to their false identification as inhibitors. Thus, to confirm their inhibitory activity, we also tested esculin, esculetin, and scopoletin as inhibitors of PatBΔ69 and SaOatAΔ435 esterase activity using the chromogenic pNP-Ac as substrate. […] .
(§2) Hits which were seen to affect NgPatBΔ100 esterase activity in a dose dependent manner were also tested as inhibitors of the enzyme (0.75 µM, final concentration) using 2 mM pNP-Ac as substrate to identify false positives, due to fluorescence quenching under similar assay conditions. Similarly, hits which were seen to affect SaOatAΔ445 esterase activity in a dose dependent manner were also tested as inhibitors of the enzyme at 1.5 µM (final concentration) using 1.1 mM pNP-Ac.

NgPatB [3] = target: T2, NgPatB; experiment: NgPatB esterase inhibition, fluorometric assay with 4MU-Ac as substrate (HTS, dose response, Ki); type: biochemical; settings: for activity at 10 µM: pH 7, read-out: NgPatB 4MU-Ac 1° Screen (% RA); for Mode of inhibition of NgPatB: 4MU-Ac as substrate, double reciprocal plot
Experimental: Determinations of Ki and mode of inhibition of NgPatBΔ100 were conducted using 4MU-Ac as a substrate. […] Initial velocities of substrate hydrolysis were obtained by fluorescence emission at 420 nm (390 nm excitation).
A large scale HTS was conducted at the SPARC BioCentre Drug Discovery Facility (The Hospital for Sick Children, Toronto, Canada) to identify additional inhibitors of PatBΔ100 acetylesterase activity. A total of 68,928 compounds were tested in singlicate, including 14,400 from the Maybridge HitFinder Collection, 50,000 from the ChemBridge DIVERset Collection, and 4,480 compounds representing plates 1–15 of the GlycoNET ChemBridge Collection maintained at the facility. The 4MU-Ac served as the substrate in the 384-well microtiter plate (NUNC 262260) fluorescent assay described above. The assay was optimized for use with this facility by altering enzyme and substrate concentrations, in addition to incubation times and reaction volume. As for the pilot screen, a Z’ for the assay was determined using Equation (1). […] This was followed by dispensing final concentrations of 20 µM compounds from the Maybridge HitFinder and ChemBridge DIVERset Collections or 10 µM compounds from the GlycoNET ChemBridge Collection using an Echo® 550 acoustic dispenser (Labcyte).

SaOatA [4] = target: T1, SaOatA; experiment: SaOatA esterase inhibition, chromogenic assay with pNP-Ac as substrate; type: biochemical
Experimental: as §1, §2

S. aureus ATCC 6538 = experiment: Microtiter plate growth / MIC assay, S. aureus; settings: Staphylococcus aureus, ATCC6538, read-out: Growth of S. aureus ATCC 6538, % of control growth level reached
SaOatA [5] = target: T1, SaOatA; settings: cited from earlier work
E. coli BL21 = experiment: Microtiter plate growth / MIC assay, E. coli (negative control organism); settings: for Effect on growth of E. coli: within solubility limits
N. gonorrhoeae FA1090 = experiment: Microtiter plate growth / MIC assay, N. gonorrhoeae
[6] = Solubility limit in growth assays
NgPatB [7] = target: T2, NgPatB; type: biochemical; settings: 3 µM enzyme, pH 7.0
SaOatA [8] = target: SaOatA (Staphylococcus aureus, UniProt Q2FV54); type: biochemical; settings: variant SaOatA445 (SaOatAΔ445), 5 µM enzyme, pH 6.5
SaOatA [9] = target: T1, SaOatA; settings: 10 µM
[10] = read-out: SaOatA 4MU-Ac IC50, 4MU-Ac as substrate, values marked 2 in Table 1
[11] = listed as benzothiazolyl-pyrazolo-pyridine

Row | SMILES | activity at 10 µM (SaOatA [1]) | IC50 (NgPatB [2]) | IC50 (NgPatB [3]) | activity at 10 µM (NgPatB [3]) | IC50 (SaOatA [4]) | IC50 (SaOatA [5]; [10]) | other results
1 | Cc1cc(=O)oc2cc(O)ccc12 [Hymercrome, 7-hydroxy-4-methyl-coumarin, reference compound] | 67.8% | > 3000 µM | 615 ± 10 µM | 42.9% | > 3000 µM | – | IC50 (SaOatA [1]): > 3000 µM
2 | O=c1ccc2cc(O)c(O)cc2o1 [Esculetin] | 71% | 853 ± 79 µM | 53.1 ± 1 µM | 55.7% | 600 ± 140 µM | 106 ± 1.2 µM | activity at 512 µg/mL (S. aureus ATCC 6538): 10%; Ki (NgPatB [3]): 86.7 ± 4.7 µM; Mode of inhibition of NgPatB (NgPatB [3]): competitive inhibitor; MIC (E. coli BL21; Escherichia coli, BL21, read-out: MIC, E. coli BL21): 512 µg/mL (≈ 2870 µM); activity at 512 µg/mL (N. gonorrhoeae FA1090; Neisseria gonorrhoeae, FA1090, read-out: Growth of N. gonorrhoeae FA1090, % of control growth level reached): 25%
3 | Cc1cc(=O)oc2cc(O)c(O)cc12 [4-Me-esculetin] | 98.3% | – | – | 92% | – | – | –
4 | O=c1ccc2cc(O[C@@H]3O[C@H](CO)[C@@H](O)[C@H](O)[C@H]3O)c(O)cc2o1 [Esculin] | – | 923 ± 9 µM | 49.7 ± 3 µM | – | 1350 ± 150 µM | 75.8 ± 1 µM | solubility [6]: 2050 µg/mL (≈ 6020 µM); remaining activity at 10 µM (SaOatA [1]; read-out: SaOatA 4MU-Ac 1° Screen (% RA)): 47.8%; remaining activity at 10 µM (NgPatB [3]; read-out: NgPatB 4MU-Ac 1° Screen (% RA)): 38.4%
5 | O=c1ccc2ccc(O)cc2o1 [Umbelliferone, 7-hydroxycoumarin] | – | > 3000 µM | 530 ± 70 µM | – | > 3000 µM | 98.5 ± 1.1 µM | –
6 | COc1cc2ccc(=O)oc2cc1O [Scopoletin] | 21.4% | 792 ± 7 µM | 47.9 ± 4 µM | 30% | 1170 ± 100 µM | 103 ± 1.1 µM | solubility [6]: 480 µg/mL (≈ 2500 µM)
7 | O=c1ccc2ccccc2o1 [Coumarin, 1,2-benzopyrone] | 106% | – | – | 82.5% | – | – | –
8 | CC(=O)Oc1ccc([N+](=O)[O-])cc1 [pNP-Ac, p-nitrophenyl acetate] | – | – | – | – | – | – | Km (NgPatB [7]; variant NgPatB69 (NgPatBΔ69)): 1770 µM; kcat (NgPatB [7]; variant NgPatB69 (NgPatBΔ69)): 0.14 sec‐1; Km (NgPatB [7]; variant NgPatB100 (NgPatBΔ100)): 2060 µM; kcat (NgPatB [7]; variant NgPatB100 (NgPatBΔ100)): 0.44 sec‐1; Km (SaOatA [8]): 1140 µM; kcat (SaOatA [8]): 0.047 sec‐1
9 | COc1cc2oc(=O)ccc2cc1O [Isoscopoletin] | 115% | – | – | 53.5% | – | – | –
10 | CCCCn1c(C)c2c(=O)n(-c3nc4ccccc4s3)[nH]c2cc1=O [Compound 89224] | 99.8% | – | 22.1 ± 1.2 µM | 78.8% | – | – | solubility [6]: ~177 µg/mL (≈ 499 µM); Ki (NgPatB [3]): 126 ± 19 µM; Mode of inhibition of NgPatB (NgPatB [3]): mixed/non-competitive inhibitor; Mode of inhibition of NgPatB (NgPatB [3]; [11]): non-competitive inhibitor; Effect on growth of E. coli (E. coli BL21): did not affect the growth; also recorded: not affected; Effect on growth of E. coli (E. coli BL21; [11]): unaffected; Reduction in growth of N. gonorrhoeae (N. gonorrhoeae FA1090; 177 µg/mL, OD 600 nm vs control lacking compound): 90%
11 | O=C1c2ccccc2C(=O)c2c(O)c(O)cc(O)c21 [purpurin, 1,2,4-trihydroxy-anthraquinone, reference compound] | – | – | – | – | – | – | Identified in pilot HTS as inhibitor of NgPatB (NgPatB [3]; pilot HTS, 10 µM): not identified; IC50 (SaOatA [5]; read-out: IC50 for SaOatA, earlier preliminary characterization): ~1100 µM; Identified in pilot HTS as inhibitor of SaOatA (SaOatA [9]): not identified

Reference: PMC6627197, “Development of a High Throughput Screen for the Identification of Inhibitors of Peptidoglycan O-Acetyltransferases, New Potential Antibacterial Targets” (Antibiotics, 2019)
